The supplement of paper PMC10307832

Legend:
Test in all cases: relative viability (nuclei count vs DMSO), 5 days (fraction); higher = more cells survive
Palbociclib + Lapatinib = compound: CC(=O)c1c(C)c2cnc(Nc3ccc(N4CCNCC4)cn3)nc2n(C2CCCC2)c1=O [Palbociclib] + CS(=O)(=O)CCNCc1ccc(-c2ccc3ncnc(Nc4ccc(OCc5cccc(F)c5)c(Cl)c4)c3c2)o1 [Lapatinib] (partner 2 µM)
Procedure, shortened: (§1)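 Values are medians from duplicate plates. Each reflects relative viability, defined as the nuclei count of treated wells over that of vehicle wells. Lung cancer cell lines in 1536-well plates were pin-tool dosed one day after seeding with one drug alone or with a fixed anchor-drug dose plus five library-drug doses (not always all listed) in √10 steps, then fixed, stained and imaged at 4× after 5 days.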

Palbociclib + Phenformin = compound: CC(=O)c1c(C)c2cnc(Nc3ccc(N4CCNCC4)cn3)nc2n(C2CCCC2)c1=O [Palbociclib] + N=C(N)NC(=N)NCCc1ccccc1 [Phenformin] (partner 250 µM)
Procedure, shortened: as §1

Palbociclib + Vorinostat = compound: CC(=O)c1c(C)c2cnc(Nc3ccc(N4CCNCC4)cn3)nc2n(C2CCCC2)c1=O [Palbociclib] + O=C(CCCCCCC(=O)Nc1ccccc1)NO [Vorinostat] (partner 1 µM)
Procedure, shortened: as §1

Palbociclib + AZD7762 = compound: CC(=O)c1c(C)c2cnc(Nc3ccc(N4CCNCC4)cn3)nc2n(C2CCCC2)c1=O [Palbociclib] + NC(=O)Nc1cc(-c2cccc(F)c2)sc1C(=O)N[C@H]1CCCNC1 [AZD7762] (partner 0.2 µM)
Procedure, shortened: as §1

Cell Line | relative viability (Palbociclib + Lapatinib; first compound 0.01 µM) | relative viability (Palbociclib + Lapatinib; first compound 0.03162 µM) | relative viability (Palbociclib + Lapatinib; first compound 0.1 µM) | relative viability (Palbociclib + Lapatinib; first compound 0.3162 µM) | relative viability (Palbociclib + Lapatinib; first compound 1 µM) | relative viability (Palbociclib + Phenformin; first compound 0.01 µM) | relative viability (Palbociclib + Phenformin; first compound 0.03162 µM) | relative viability (Palbociclib + Phenformin; first compound 0.1 µM) | relative viability (Palbociclib + Phenformin; first compound 0.3162 µM) | relative viability (Palbociclib + Phenformin; first compound 1 µM) | relative viability (Palbociclib + Vorinostat; first compound 0.01 µM) | relative viability (Palbociclib + Vorinostat; first compound 0.03162 µM) | relative viability (Palbociclib + Vorinostat; first compound 0.1 µM) | relative viability (Palbociclib + Vorinostat; first compound 0.3162 µM) | relative viability (Palbociclib + Vorinostat; first compound 1 µM) | relative viability (Palbociclib + AZD7762; first compound 0.01 µM) | relative viability (Palbociclib + AZD7762; first compound 0.03162 µM) | relative viability (Palbociclib + AZD7762; first compound 0.1 µM) | relative viability (Palbociclib + AZD7762; first compound 0.3162 µM) | relative viability (Palbociclib + AZD7762; first compound 1 µM)
NCI-H1395 | 0.867 | 0.987 | 0.943 | 0.928 | 0.688 | 0.408 | 0.408 | 0.368 | 0.412 | 0.41 | 0.844 | 0.705 | 0.602 | 0.724 | 0.496 | 0.428 | 0.406 | 0.406 | 0.453 | 0.407
NCI-H1437 | 0.819 | 0.755 | 0.693 | 0.67 | 0.36 | 0.321 | 0.445 | 0.258 | 0.237 | 0.199 | 0.873 | 0.74 | 0.651 | 0.493 | 0.35 | 1.15 | 1.09 | 1.03 | 1.09 | 0.73
NCI-H1651 | 0.613 | 0.739 | 0.735 | 0.699 | 0.468 | 0.342 | 0.332 | 0.308 | 0.337 | 0.256 | 0.572 | 0.523 | 0.591 | 0.529 | 0.485 | 0.484 | 0.394 | 0.474 | 0.464 | 0.425
NCI-H1666 | 0.644 | 0.559 | 0.419 | 0.474 | 0.384 | 0.57 | 0.462 | 0.518 | 0.411 | 0.427 | 1.05 | 0.947 | 0.836 | 0.835 | 0.788 | 0.881 | 0.58 | 0.842 | 0.74 | 0.684
NCI-H1734 | 1.01 | 0.575 | 0.867 | 0.789 | 0.531 | 0.435 | 0.337 | 0.307 | 0.286 | 0.247 | 0.731 | 0.459 | 0.619 | 0.649 | 0.48 | 0.53 | 0.417 | 0.454 | 0.453 | 0.356
NCI-H1755 | 1.07 | 0.604 | 0.929 | 0.878 | 0.617 | 0.626 | 0.433 | 0.495 | 0.53 | 0.405 | 0.721 | 0.62 | 0.489 | 0.606 | 0.491 | 0.476 | 0.402 | 0.436 | 0.451 | 0.421
NCI-H1793 | 0.68 | 0.619 | 0.462 | 0.602 | 0.355 | 0.28 | – | 0.336 | 0.309 | 0.173 | 0.824 | 0.564 | 0.531 | 0.664 | 0.287 | 0.518 | 0.393 | 0.549 | 0.528 | 0.277
NCI-H1915 | 0.972 | 0.379 | 1.04 | 0.942 | 0.808 | 0.365 | 0.308 | 0.37 | 0.346 | 0.323 | 0.487 | – | 0.438 | 0.525 | 0.378 | 0.685 | – | 0.718 | 0.649 | 0.608
NCI-H1944 | 0.798 | 0.487 | 0.772 | 0.758 | 0.402 | 0.206 | 0.172 | 0.182 | 0.174 | 0.165 | 0.579 | 0.456 | 0.399 | 0.475 | 0.343 | 0.557 | 0.44 | 0.504 | 0.428 | 0.375
NCI-H1975 | 0.959 | 0.831 | 0.833 | 0.922 | 0.711 | 0.388 | 0.384 | 0.325 | 0.273 | 0.3 | 0.712 | 0.649 | 0.597 | 0.579 | 0.469 | 0.715 | 0.772 | 0.609 | 0.659 | 0.531
NCI-H1993 | 0.841 | 0.715 | 0.661 | 0.624 | 0.658 | 0.467 | 0.474 | 0.464 | 0.445 | 0.556 | 0.8 | 0.539 | 0.625 | 0.644 | 0.65 | 0.748 | 0.646 | 0.575 | 0.632 | 0.528
NCI-H2085 | 0.756 | 0.7 | 0.669 | 0.663 | 0.362 | 0.667 | 0.555 | 0.616 | 0.592 | 0.399 | 0.816 | 0.786 | 0.748 | 0.63 | 0.383 | 1.06 | 0.912 | 0.942 | 0.76 | 0.473
NCI-H2087 | 1.08 | 0.814 | 0.688 | 0.649 | 0.442 | 0.449 | – | 0.291 | 0.229 | 0.189 | 0.365 | 0.53 | 0.602 | 0.379 | 0.188 | 1.18 | 1.16 | 1.03 | 0.902 | 0.641
NCI-H2126 | 0.819 | 0.581 | 0.728 | 0.618 | 0.452 | 0.494 | 0.418 | 0.381 | 0.413 | 0.392 | 0.718 | 0.381 | 0.535 | 0.545 | 0.325 | 0.937 | 0.848 | 0.8 | 0.732 | 0.584
NCI-H2170 | 0.29 | 0.23 | 0.245 | 0.233 | 0.25 | 0.418 | 0.352 | 0.351 | 0.34 | 0.304 | 0.841 | 0.515 | 0.694 | 0.675 | 0.447 | 0.925 | 0.736 | 0.875 | 0.773 | 0.514
NCI-H2347 | 0.957 | 0.823 | 0.71 | 0.682 | 0.751 | 0.612 | – | 0.285 | 0.26 | 0.182 | 0.558 | 0.603 | 0.424 | 0.487 | 0.4 | 0.793 | 0.638 | 0.646 | 0.633 | 0.48
NCI-H2405 | 1.04 | – | 0.819 | 0.901 | 0.761 | 0.387 | 0.344 | 0.327 | 0.36 | 0.317 | 1.01 | 1 | 0.82 | 0.837 | 0.631 | 0.666 | 0.78 | 0.726 | 0.62 | 0.383
NCI-H3122 | 0.994 | 0.998 | 0.911 | 0.819 | 0.579 | 0.353 | 0.323 | 0.279 | 0.282 | 0.167 | 0.931 | 0.632 | 0.879 | 0.703 | 0.613 | 0.927 | 0.82 | 0.897 | 0.715 | 0.347
PC-3 [JPC-3] | 0.436 | 0.378 | 0.433 | 0.415 | 0.344 | 0.514 | 0.464 | 0.459 | 0.445 | 0.378 | 0.817 | 0.673 | 0.699 | 0.507 | 0.381 | 0.794 | 0.814 | 0.619 | 0.592 | 0.41
PC-14 | 0.348 | 0.343 | 0.257 | 0.202 | 0.195 | 0.817 | – | 0.549 | 0.528 | 0.282 | 0.804 | 0.629 | 0.576 | 0.673 | 0.416 | 0.453 | 0.349 | 0.277 | 0.289 | 0.16
RERF-LC-KJ | 0.846 | 0.81 | 0.817 | 0.869 | 0.837 | 0.419 | 0.414 | 0.418 | 0.459 | 0.485 | 0.724 | 0.613 | 0.66 | 0.747 | 0.682 | 0.966 | 0.661 | 0.932 | 0.948 | 0.996
